# Measured values as given in patent US20240423992A1, “BIOMARKERS FOR TREATING LIVER DISORDERS WITH THR-B AGONISTS AND RELATED USES” (Madrigal Pharmaceuticals, Inc., priority 2023, published 2024).
# System: adults with nonalcoholic fatty liver disease (NAFLD)/presumed nonalcoholic steatohepatitis (NASH)
# Assay: 52-week Phase 3 trial (Example 1): sex hormone levels
# Format: in vivo, human
# Settings: Week 52
# Method: A 52-week randomized, double-blind, placebo-controlled Phase 3 trial was conducted to evaluate the safety and effect of resmetirom, an oral, once-daily, liver-targeted thyroid hormone receptor-β selective agonist, on multiple biomarkers in adults with nonalcoholic fatty liver disease (NAFLD)/presumed nonalcoholic steatohepatitis (NASH). Patients were randomized to three double-blind arms (100 mg resmetirom, 80 mg resmetirom, or placebo) or one open-label arm (100 mg resmetirom). Common concomitant medications across the 4 arms were antidiabetes drugs (such as glucagon-like peptide-1 receptor agonists (GLP-1 RAs), metformin, pioglitazone, and sodium/glucose cotransporter-2 inhibitors (SGLT2i)) and drugs to manage dyslipidemia (statins).
# Sex hormone levels after 52 weeks of resmetirom treatment are shown in Table A. Thyroid hormone levels after 52 weeks of resmetirom treatment are reported in Table B.
# [1] = Resmetirom 80 mg DB vs Placebo DB
# [2] = Resmetirom 100 mg DB vs Placebo DB
smiles,measurement,setting,value
"CC(C)c1cc(Oc2c(Cl)cc(-n3nc(C#N)c(=O)[nH]c3=O)cc2Cl)n[nH]c1=O [Resmetirom, 2-[3,5-dichloro-4-[(6-oxo-5-propan-2-yl-1H-pyridazin-3-yl)oxy]phenyl]-3,5-dioxo-1,2,4-triazine-6-carbonitrile]",Estradiol (female) LSM Difference,[1],7.1 ng/L
same,Estradiol (male) LSM Difference,[1],4.8 ng/L
same,FSH (female) LSM Difference,[1],−1.1 IU/L
same,FSH (male) LSM Difference,[1],0.2 IU/L
same,Free testosterone (female) LSM Difference,[1],0.0002 µg/L
same,Free testosterone (male) LSM Difference,[1],0.0115 µg/L
same,LH (female) LSM Difference,[1],−0.9 IU/L
same,LH (male) LSM Difference,[1],0.4 IU/L
same,SHBG (female) LSM Difference in % CFB,[1],119.5%
same,SHBG (female) LSM Difference in CFB,[1],39.9 nmol/L
same,SHBG (male) LSM Difference in % CFB,[1],69.7%
same,SHBG (male) LSM Difference in CFB,[1],24.5 (3.9) nmol/L
same,SHBG LSM Difference in % CFB,[1],96.0%
same,SHBG LSM Difference in CFB,[1],32.1 nmol/L
same,Testosterone (female) LSM Difference,[1],0.1 µg/L
same,Testosterone (male) LSM Difference,[1],1.5 µg/L
same,Estradiol (female) LSM CFB,Resmetirom 80 mg DB,5.0 ng/L
same,Estradiol (male) LSM CFB,Resmetirom 80 mg DB,3.3 ng/L
same,FSH (female) LSM CFB,Resmetirom 80 mg DB,0.9 IU/L
same,FSH (male) LSM CFB,Resmetirom 80 mg DB,0.3 IU/L
same,Free testosterone (female) LSM CFB,Resmetirom 80 mg DB,0.0004 µg/L
same,Free testosterone (male) LSM CFB,Resmetirom 80 mg DB,0.0077 µg/L
same,LH (female) LSM CFB,Resmetirom 80 mg DB,0.8 IU/L
same,LH (male) LSM CFB,Resmetirom 80 mg DB,0.4 IU/L
same,SHBG (female) LSM % CFB,Resmetirom 80 mg DB,133.0%
same,SHBG (female) LSM CFB,Resmetirom 80 mg DB,43.3 nmol/L
same,SHBG (male) LSM % CFB,Resmetirom 80 mg DB,67.1%
same,SHBG (male) LSM CFB,Resmetirom 80 mg DB,21.9 nmol/L
same,SHBG LSM % CFB,Resmetirom 80 mg DB,99.6%
same,SHBG LSM CFB,Resmetirom 80 mg DB,32.7 nmol/L
same,Testosterone (female) LSM CFB,Resmetirom 80 mg DB,0.1 µg/L
same,Testosterone (male) LSM CFB,Resmetirom 80 mg DB,1.4 µg/L
same,Estradiol (female) LSM Difference,[2],9.5 ng/L
same,Estradiol (male) LSM Difference,[2],10.4 ng/L
same,FSH (female) LSM Difference,[2],−0.4 IU/L
same,FSH (male) LSM Difference,[2],0.5 IU/L
same,Free testosterone (female) LSM Difference,[2],-0.0006 µg/L
same,Free testosterone (male) LSM Difference,[2],0.0029 µg/L
same,LH (female) LSM Difference,[2],−0.5 IU/L
same,LH (male) LSM Difference,[2],0.8 IU/L
same,SHBG (female) LSM Difference in % CFB,[2],184.0%
same,SHBG (female) LSM Difference in CFB,[2],61.8 nmol/L
same,SHBG (male) LSM Difference in % CFB,[2],125.5%
same,SHBG (male) LSM Difference in CFB,[2],41.7 (3.8) nmol/L
same,SHBG LSM Difference in % CFB,[2],157.5%
same,SHBG LSM Difference in CFB,[2],52.4 nmol/L
same,Testosterone (female) LSM Difference,[2],0.1 µg/L
same,Testosterone (male) LSM Difference,[2],2.1 µg/L
same,Estradiol (female) LSM CFB,Resmetirom 100 mg DB,7.5 ng/L
same,Estradiol (male) LSM CFB,Resmetirom 100 mg DB,8.9 ng/L
same,FSH (female) LSM CFB,Resmetirom 100 mg DB,1.6 IU/L
same,FSH (male) LSM CFB,Resmetirom 100 mg DB,0.6 IU/L
same,Free testosterone (female) LSM CFB,Resmetirom 100 mg DB,-0.0003 µg/L
same,Free testosterone (male) LSM CFB,Resmetirom 100 mg DB,-0.0009 µg/L
same,LH (female) LSM CFB,Resmetirom 100 mg DB,1.2 IU/L
same,LH (male) LSM CFB,Resmetirom 100 mg DB,0.9 IU/L
same,SHBG (female) LSM % CFB,Resmetirom 100 mg DB,197.6%
same,SHBG (female) LSM CFB,Resmetirom 100 mg DB,65.3 nmol/L
same,SHBG (male) LSM % CFB,Resmetirom 100 mg DB,122.9%
same,SHBG (male) LSM CFB,Resmetirom 100 mg DB,39.2 nmol/L
same,SHBG LSM % CFB,Resmetirom 100 mg DB,161.1%
same,SHBG LSM CFB,Resmetirom 100 mg DB,53.0 nmol/L
same,Testosterone (female) LSM CFB,Resmetirom 100 mg DB,0.1 µg/L
same,Testosterone (male) LSM CFB,Resmetirom 100 mg DB,2.0 µg/L
same,Estradiol (female) LSM CFB,Resmetirom 100 mg OL,11.0 ng/L
same,Estradiol (male) LSM CFB,Resmetirom 100 mg OL,11.7 ng/L
same,FSH (female) LSM CFB,Resmetirom 100 mg OL,1.3 IU/L
same,FSH (male) LSM CFB,Resmetirom 100 mg OL,0.6 IU/L
same,Free testosterone (female) LSM CFB,Resmetirom 100 mg OL,-0.0006 µg/L
same,Free testosterone (male) LSM CFB,Resmetirom 100 mg OL,0.024 µg/L
same,LH (female) LSM CFB,Resmetirom 100 mg OL,−0.0 IU/L
same,LH (male) LSM CFB,Resmetirom 100 mg OL,0.3 IU/L
same,SHBG (female) LSM % CFB,Resmetirom 100 mg OL,199.3%
same,SHBG (female) LSM CFB,Resmetirom 100 mg OL,68.6 nmol/L
same,SHBG (male) LSM % CFB,Resmetirom 100 mg OL,156.0%
same,SHBG (male) LSM CFB,Resmetirom 100 mg OL,44.7 nmol/L
same,SHBG LSM % CFB,Resmetirom 100 mg OL,182.6%
same,SHBG LSM CFB,Resmetirom 100 mg OL,60.3 nmol/L
same,Testosterone (female) LSM CFB,Resmetirom 100 mg OL,0.1 µg/L
same,Testosterone (male) LSM CFB,Resmetirom 100 mg OL,2.8 µg/L
